Values after ≈ are worked out from the molar mass of the structure shown. Like-named read-outs stand apart in the source and are kept apart here.
Experiments:
[1] = tested on: southern corn rootworm, Diabrotica undecimpunctata howardi; test: Biological Method A: Corn Rootworm Screening Test (treated non-aggressive soil); conditions: soil concentration giving 90% mortality, 10 days at 27°C
[2] = tested on: Mexican Bean Beetle; test: Biological Method D: Foliar Insecticidal Activity Test, Mexican Bean Beetle test; assay type: in vivo, Epilachna varivestis; set-up: key to LC50 BB 96 hrs / LC50 BB 48 hrs.: I = inactive at concentration listed; conditions: for LC50: Epilachna varivestis
Experimental: (§1) Biological Method D: Foliar Insecticidal Activity Test
(§2) In evaluating the foliar insecticidal activity of the compounds of this invention against insects and mites, the following test procedures were employed.
(§3) Not all compounds were tested at each of the several concentrations stated above. Test concentrations of a compound were selected as those most likely to differentiate dose response of a particular compound toward a particular test insect.
(§4) Initial evaluations were made on one or more of the following pests:
(§5) For the Mexican Bean Beetle and Southern armyworm tests, individual lima bean (Phaseolus limeniss var. Woods' Prolific) leaves were placed on moistened pieces of filter paper in Petri dishes. The leaves were then sprayed with the test solution using a rotating turntable and allowed to dry. The dishes were then infested with 10 third instar larvae of either the Mexican Been Beetle or the Southern Armyworm. The dishes were then covered. Percent mortality was determined for each species and spray concentration at 48 and 96 hours after treatment.
(§6) The mortalities obtained in this manner were plotted on logarithmic probability paper.
(§7) The rotating turntable consists of a fixed, continuously operating spray nozzle under which targets are rotated at a fixed speed and distance. If the target is a Petri dish (such as for the bean beetle, armyworm, mite, or aphid tests), the distance from the nozzle is 38.1 cm (15 inches). If the target is a Mason jar (such as for the boll weevil test), the distance from the nozzle is 17.8 cm (7 inches). The nozzle is located 8 inches from the rotating shaft. The targets on individual platforms revolve around the shaft at 1 revolution per 20 seconds but only a brief portion of this time occurs in the spray path. Targets pass only once under the nozzle and then are removed to drying hoods.
(§8) The nozzle used is a 1/4 JCO Spraying Systems (Wheaton, Illinois) air atomizing nozzle equipped with a No. 2850 fluid cap and a No. 70 air cap. At the 68.95 x 10³ Pa gauge (10 psig) air pressure used and with liquid siphon feed, 1.89 ℓ/hr [0.5 GPH (gallons per hour)] are delivered in a round spray pattern with a 21 degree spray angle. Targets are misted with spray droplets to the point that the droplets coalesce to form a uniform thin film insufficient to drown test organisms.

[3] = tested on: southern corn rootworm, Diabrotica undecimpunctata howardi; conditions: at-planting soil application
[4] = tested on: Green Peach Aphid; test: Biological Method D: Foliar Insecticidal Activity Test, aphid test; assay type: in vivo, Myzus persicae; set-up: key: I = inactive at concentration listed
Experimental: as §1, §2, §3, §4
(§9) For the aphid test, infested broccoli (Brassica oleracea italica var. DiCicco) leaves containing about 50 aphids were placed in a Petri dish lid on a moistened piece of cotton. The leaves were then sprayed to thorough wetness with the test solution using a rotating turntable, held for twenty-four hours and then the percentage killed was determined.
as §6, §7, §8

[5] = tested on: Boll Weevil; test: Biological Method D: Foliar Insecticidal Activity Test, boll weevil test; assay type: in vivo, Anthonomous grandis; set-up: key: I = inactive at concentration listed
Experimental: as §1, §2, §3, §4
(§10) For the boll weevil test, 10 adult weevils were placed in a 0.24 ℓ (0.5 pint) glass Mason jar containing a small cube of apple. The weevils were confined to the jar by fiberglass screen mesh secured by a screw-type rim cap. The jars were then sprayed with the test solution using a rotating turntable; directing the spray through the mesh into the jar. The percentage killed was determined after forty-eight and ninety six hours.
as §6, §7, §8

[6] = tested on: Two-Spotted Spider Mite; test: Biological Method D: Foliar Insecticidal Activity Test, mite test; assay type: in vivo, Tetranychus urticae; set-up: key to LC50 TSM: I = inactive at concentration listed; conditions: for LC50 TSM: Method D foliar test, Two-Spotted Spider Mite; for TSM LC50: foliar spray, kill after twenty-four hours
Experimental: as §1, §2, §3, §4
as §9, with “mite” for “aphid”, “bean (Phaseolus limensis” for “broccoli (Brassica oleracea italica”, “Woods Prolific) leaf discs [3.18 cm (1.25") in diameter]” for “DiCicco) leaves”, “mites” for “aphids”
as §6, §7, §8

[7] = tested on: Southern Armyworm; test: Biological Method D: Foliar Insecticidal Activity Test, Southern Armyworm test; assay type: in vivo, Spodoptera eridania; set-up: key: I = inactive at concentration listed
Experimental: as §1, §2, §3, §4, §5, §6, §7, §8

[8] = tested on: Southern Armyworm; test: as above; assay type: in vivo, Spodoptera eridania; conditions: for LC50: Spodoptera eridania, Method D foliar test, Southern Armyworm; for AW 48 hrs LC50: 48 hours after treatment
Experimental: as §1, §2, §3, §4, §5, §6, §7, §8

[9] = tested on: Boll Weevil; test: Biological Method D: Foliar Insecticidal Activity Test, boll weevil test; assay type: in vivo, Anthonomous grandis; conditions: for LC50 BW 48 hrs / LC50 BW 96 hrs: Method D foliar test, Boll Weevil
Experimental: as §1, §2, §3, §4, §10, §6, §7, §8

[10] = tested on: Green Peach Aphid; test: Biological Method D: Foliar Insecticidal Activity Test, aphid test; assay type: in vivo, Myzus persicae; conditions: foliar spray; kill after twenty-four hours
Experimental: as §1, §2, §3, §4, §9, §6, §7, §8

[11] = Method D foliar test, Mexican Bean Beetle, 48 hrs, read-out: LC50 BB 48 hrs.
[12] = Method D foliar test, Mexican Bean Beetle, 96 hrs, read-out: LC50 BB 96 hrs
[13] = Method D foliar test, Mexican Bean Beetle, 48 hrs
[14] = Method D foliar test, Mexican Bean Beetle, 96 hrs
[15] = 48 hrs, read-out: LC50 AW 48 hrs
[16] = 96 hrs, read-out: LC50 AW 96 hrs

SMILES	primary nonagressive Method A crw LC90 [1]	LC50 [2, 12] [µg/mL]	secondary aggressive Method C crw LC50 ([3]; rated 17 days post-infestation) [kg/ha]	secondary aggressive Method C crw LC50 ([3]; value in brackets) [lb/acre]	LC50 GPA [4]	LC50 BW 48 hrs [5]	LC50 BW 96 hrs [5]	LC50 TSM [6]	LC50 AW 48 hrs [7]	LC50 AW 96 hrs [7]	LC50 BB 48 hrs. [2, 13]	LC50 BB 96 hrs [2, 14]	LC50 BW 48 hrs [9] [ppm]	LC50 BW 96 hrs [9] [ppm]	further results
CCOP(=O)(NNP(=S)(OCC)OCC(C)(C)C)SC(C)CC (centres unmarked) [Compound 52]	1.1 ppm	150 (≈ 369 µM)	0.78	0.70	I	I	I	I	I	I	–	–	–	–	LC50 [2, 11]: 500 µg/mL (≈ 1230 µM)
CCCOP(=S)(NNP(=S)(OCC)OCC)OCC(C)(C)C (centres unmarked) [Compound 34]	1.1 ppm	52 (≈ 132 µM)	0.65	0.58	I	I	I	I	I	I	I	–	–	–	–
CCCOP(=S)(NNP(=O)(OCC)SC(C)CC)OCC (centres unmarked) [Compound 54]	1.1 ppm	–	–	–	I	I	–	I	–	I	I	I	–	–	LC50 [8, 15]: 52 µg/mL (≈ 137 µM)
CCOP(=S)(NNP(=S)(OCC(C)(C)C)OCC(C)(C)C)OCC [Compound 59, reference compound]	I	–	–	–	I	–	–	I	I	I	I	I	740	740	–
CCOP(=S)(NNP(=S)(OC(C)C)OC(C)C)OCC(C)C (centres unmarked) [Compound 83]	–	–	–	–	–	–	–	–	–	–	–	–	–	–	GPA LC50 [10]: I; LC50 ([2]; foliar spray, 48 hours after treatment, read-out: BB 48 hrs. LC50): 500 µg/mL (≈ 1270 µM); LC50 ([2]; foliar spray, 96 hours after treatment, read-out: BB 96 hrs LC50): 62 µg/mL (≈ 158 µM); AW 48 hrs LC50 ([8]; foliar spray): I; TSM LC50 [6]: I
CCOP(=S)(NNP1(=S)OCC(C)(C)CO1)OCC [Compound 61]	1.1 ppm	–	–	–	I	–	–	I	I	–	I	I	740	740	–
CCCOP(=S)(NNP(=S)(OCC)SCC)OCCC (centres unmarked) [Compound 27]	5.8 ppm	150 (≈ 394 µM)	–	–	I	I	–	I	I	I	–	–	–	740	LC50 [2, 11]: 150 µg/mL (≈ 394 µM)
CCOP(=S)(NNP(=S)(OC)OC)OCC(C)(C)C (centres unmarked) [Compound 44]	0.37 ppm	–	0.56	0.50	I	–	–	I	I	–	I	I	380	380	LC50 [8, 16]: 500 µg/mL (≈ 1430 µM)
CCOP(=O)(NNP(=S)(OCC)OCC)SC(C)CC (centres unmarked) [Compound 53]	1.6 ppm	–	–	–	I	–	–	I	I	I	I	I	740	740	–
CCOP(=S)(NNP(=S)(OCC)OC(C)(C(F)(F)F)C(F)(F)F)OCC(C)(C)C (centres unmarked) [Compound 48]	0.40 ppm	–	0.63	0.56	I	I	I	I	–	–	I	I	–	–	LC50 [8, 15]: 300 µg/mL (≈ 583 µM); LC50 [8, 16]: 150 µg/mL (≈ 292 µM)
CCCOP(=S)(NNP(=S)(OCC)OCC(C)(C)C)OCC (centres unmarked) [Compound 45, N-(O-ethyl O-propylthiophosphoryl) N′-(O-ethyl O-neopentylthiophosphoryl) hydrazine]	0.39 ppm	–	0.37	0.33	I	I	–	I	I	–	I	I	–	150	LC50 [8, 16]: 150 µg/mL (≈ 382 µM)
CCOP(=S)(NNP(=S)(OCC)OC(C)CC)OCC(C)(C)C (centres unmarked) [Compound 47, N-(O-ethyl O-secbutylthiophosphoryl) N′-(O-ethyl O-neopentylthiophosphoryl) hydrazine]	0.09 ppm	45 (≈ 111 µM)	0.38	0.34	I	I	I	I	I	I	I	–	–	–	–
CCCCCCCCOP(=S)(NNP(=S)(OCC)OCC)OCC (centres unmarked) [Compound 72]	1.1 ppm	–	–	–	–	–	–	–	–	–	–	–	–	–	GPA LC50 [10]: I; AW 48 hrs LC50 ([8]; foliar spray): I; AW 96 hrs LC50 ([8]; foliar spray, 96 hours after treatment): I; BW 48 hrs LC50 ([9]; spray into jar, 48 hours): I; BW 96 hrs LC50 ([9]; spray into jar, 96 hours): I; TSM LC50 [6]: I
CCCOP(=S)(NNP(=S)(OCCC)OCCC)OCC (centres unmarked) [Compound 28]	1.1 ppm	50 (≈ 132 µM)	1.06	0.95	I	I	I	I	I	I	–	–	–	–	LC50 [2, 11]: 62 µg/mL (≈ 164 µM)
CCOP(=S)(NNP(=S)(OCC(C)(C)C)OCC(C)(C)C)OCC(C)(C)C (centres unmarked) [Compound 57, N-(O,O-dineopentylthiophosphoryl) N′-(O-ethyl O-neopentylthiophosphoryl) hydrazine]	1.1 ppm	–	0.5	0.45	I	I	I	I	I	I	I	I	–	–	–
CCOP(=O)(NNP(=S)(OCC)OC(C)C)SC(C)CC (centres unmarked) [Compound 55]	1.1 ppm	17 (≈ 44.9 µM)	–	–	I	–	–	I	I	I	I	–	740	70	–
